As a reminder, the ΔTm is the change in melting temperature against a reference sample.

Molecules are shown by their SMILES.

The subject of the experiment is d(CCAATTGG)2 (DNA, duplex) CCAATTGG
The experiment is described as follows: differential scanning calorimetry. The following applies: Na+ (sodium phosphate buffer); 100 μM DNA, compound/DNA = 1; free Tm 41.73 °C.
In the case of `O=c1cc(-c2ccccc2)oc2cc(O)c(O)c(O)c12`, the ΔTm was 13.88 °C.

For `O=c1cc(-c2ccccc2)oc2cc(O)cc(O)c12`, the ΔTm was 12.14 °C.

For `O=c1cc(-c2ccccc2)oc2ccccc12`, the ΔTm was -2.07 °C.

(Values after paper PMC9040621 (2021).)
